Tests used:
[1] = system: advanced (unresectable or metastatic) pancreatic adenocarcinoma; experiment: Phase 3 double-blind, randomized, placebo-controlled 3-stage trial: survival and time to symptom progression; format: in vivo, human
Description: This was a double-blind, multicenter, randomized, 2-arm, parallel group, 3-stage trial. Median survival was the primary end-point calculated from Kaplan-Meier plots of survival of the Intention to Treat data set.
The blood pharmacokinetic profiles of gemcitabine and VIRULIZIN® were assessed by an independent (unblinded) pharmacokinetics assessor. Stage 1 was performed at selected sites. Immune stimulation assays were also to be performed in these patients.
The decision to discontinue patients from Stage 2 and move them into Stage 3 and to continue or discontinue study treatment was at the discretion of the investigator.
However, if the investigator believed further chemotherapy was not in the best interest of the patient (based on hematological profile, symptom progression or no evidence of clinical benefit), the patient continued to receive best supportive care, with or without continued injections of VIRULIZIN® or placebo. The first 18 patients entering Stage 3 and receiving VIRULIZIN® or placebo plus intravenous infusions of 5-FU were to have blood samples taken to assess the pre- and post-dose plasma concentrations of 5-FU.
Male or female patients, aged 18 years or older, with advanced (unresectable or metastatic) pancreatic adenocarcinoma (tumor staging definition—tumor, lymph nodes, metastasis [TNM] stages II, III or IV) who had not received previous systemic chemotherapy, who had Eastern Cooperative Oncology Group (ECOG) Score 0, 1 or 2, and life expectancy greater than or equal to 12 weeks were included in the study.
(§1) VIRULIZIN® or placebo was administered as intramuscular injections of 3 mL with dosing 3 times weekly (Monday, Wednesday, Friday) in Stages 1, 2 and 3.
(§2) Following pain stabilization screening, all randomized patients in Stages 1 and 2 received 30-minute intravenous infusions of gemcitabine at a dose of 1 g/m2 weekly for the first 7 weeks, followed by a week of rest. Subsequent cycles consisted of 28-day cycles with gemcitabine dosing on days 1, 8 and 15. Guidelines for dose reduction in case of toxicity were provided from the Official Product Prescribing Guidelines. Dosing continued until intolerance to gemcitabine developed, or there was symptom progression, or no evidence of clinical benefit. […] The patient's physician made the decision concerning 5-FU chemotherapy or best supportive care.
Efficacy was evaluated based upon survival time, defined as the time from Baseline/Treatment Day 1 to the time of death from any cause. Time to progression of symptoms, consisting of: time to increase in pain (with consideration of analgesic consumption), time to deterioration in ECOG score, and time to weight loss.

[2] = system: advanced pancreatic cancer; conditions: cited from earlier work; for median Overall Survival: survival from study enrollment to death from any cause
[3] = in vivo
Description: as §1, §2
Safety was evaluated based upon adverse events (AEs), laboratory tests, and vital signs.

[4] = ECOG 0 or 1, treated in Stage 3, of 25 (VIRULIZIN plus 5-FU) / of 16 (placebo plus 5-FU) patients
[5] = Efficacy evaluable, ECOG 0 or 1, value (95% CI)
[6] = Efficacy evaluable, Overall, value (95% CI)
[7] = Intention to Treat, ECOG 0 or 1, value (95% CI)
[8] = Intention to Treat, Metastatic, value (95% CI)
[9] = Intention to Treat, Overall, value (95% CI)

Structure (SMILES): O=c1[nH]cc(F)c(=O)[nH]1 [Placebo plus 5-FU, 5-fluorouracil]
- number of patients alive (censored) at the end of the study data collection period [1, 4]: None
- percent of patients alive (censored) at the end of the study data collection period [1, 4]: 0%
- Median survival time from entry into study Stage 3 to death from any cause ([1]; Intention to Treat, Stage 3 test product plus 5-FU, ECOG 0 or 1): 2.94 months
- Median survival time from entry into study Stage 3 to death from any cause ([1]; Intention to Treat, Stage 3 test product plus 5-FU, ECOG 2): 3.42 months
- Median survival time from entry into study Stage 3 to death from any cause ([1]; Intention to Treat, Stage 3 test product plus 5-FU, ECOG 2, listed as placebo plus 5-FU): 3.43 months
- Median survival time from entry into study Stage 3 to death from any cause ([1]; Intention to Treat, Stage 3 test product plus 5-FU, Overall): 3.22 months

Structure (SMILES): Nc1ccn([C@@H]2O[C@H](CO)[C@@H](O)C2(F)F)c(=O)n1 [gemcitabine]
- increased median survival versus 5-FU ([2]; in vivo): 1.5 months
- median Overall Survival [2]: 5.7 months

Structure (SMILES): Nc1ccn([C@@H]2O[C@H](CO)[C@@H](O)C2(F)F)c(=O)n1 [Placebo plus gemcitabine, gemcitabine]
- Median survival time, study enrollment to death from any cause [1, 5]: 6.3 (5.0 to 7.2) months
- Percent 12-Month Survival [1, 5]: 20.1 (12.8 to 27.4) %
- Median survival time, study enrollment to death from any cause ([1]; Efficacy evaluable, ECOG 2, value (95% CI)): 5.5 (4.3 to 7.4) months
- Median survival time, study enrollment to death from any cause ([1]; Efficacy evaluable, Locally advanced disease, value (95% CI)): 8.1 (7.1 to 11.2) months
- Median survival time, study enrollment to death from any cause ([1]; Efficacy evaluable, Metastatic disease, value (95% CI)): 5.0 (4.3 to 6.0) months
- Percent 12-Month Survival ([1]; Efficacy evaluable, Metastatic, value (95% CI)): 10.9 (5.4 to 16.4) %
- Median survival time, study enrollment to death from any cause [1, 6]: 6.0 (5.1 to 7.0) months
- Percent 12-Month Survival [1, 6]: 16.9 (11.2 to 22.6) %
- Median survival time, study enrollment to death from any cause ([1]; Efficacy evaluable, Patients participating in study Stage 3, value (95% CI)): 7.4 (6.8 to 8.6) months
- median duration of participation in study Stages 1 and/or 2 ([1]; FIG. 5, 248 Intention to Treat patients who participated in study Stage 3): 6.31 months
- median duration of participation in study Stages 1 and/or 2 ([1]; FIG. 6, Stage 3 participants, High ECOG score of 2): 6.31 months
- median duration of participation in study Stages 1 and/or 2 ([1]; FIG. 6, Stage 3 participants, Low ECOG score of 0 or 1): 7.13 months
- Median survival time from study enrollment to death from any cause [1, 7]: 6.4 (5.0 to 7.3) months
- Percent 12-Month Survival [1, 7]: 21.1 (14.3 to 28.0) %
- Median survival time from study enrollment to death from any cause ([1]; Intention to Treat, ECOG 0 or 1, value (95% CI), listed as placebo and gemcitabine): 6.4 months
- Median survival time from study enrollment to death from any cause ([1]; Intention to Treat, ECOG 0 or 1, value (95% CI), listed as placebo plus gemcitabine): 6.4 months
- Median survival time from study enrollment to death from any cause ([1]; Intention to Treat, ECOG 2, value (95% CI)): 5.1 (4.1 to 6.8) months
- Median survival time from study enrollment to death from any cause ([1]; Intention to Treat, ECOG 2, value (95% CI), listed as placebo and gemcitabine): 5.1 months
- Median survival time from study enrollment to death from any cause ([1]; Intention to Treat, ECOG 2, value (95% CI), listed as placebo plus gemcitabine): 6.4 months
- time to progression of pain from time of randomization ([1]; Intention to Treat, ECOG score of 0 or 1): 9.0 mo
- Median survival time from study enrollment to death from any cause ([1]; Intention to Treat, Locally advanced, value (95% CI)): 8.4 (7.1 to 11.2) months
- Median survival time from study enrollment to death from any cause [1, 8]: 5.0 (4.3 to 6.0) months
- Percent 12-Month Survival [1, 8]: 13.3 (8.0 to 18.6) %
- Median survival time from study enrollment to death from any cause [1, 9]: 6.0 (5.1 to 7.0) months
- Percent 12-Month Survival [1, 9]: 17.7 (12.3 to 23.0) %
- Median survival time from study enrollment to death from any cause ([1]; Intention to Treat, Overall, value (95% CI), listed as placebo plus gemcitabine): 6.0 months
- Median survival time from study enrollment to death from any cause ([1]; Intention to Treat, Patients participating in study Stage 3, value (95% CI)): 7.5 (6.8 to 9.4) months
- Median survival time from study enrollment to death from any cause ([1]; Intention to Treat, Patients participating in study Stage 3, value (95% CI), listed as placebo plus gemcitabine): 7.5 months
- Median survival time from entry into study Stage 3 to death from any cause ([1]; Intention to Treat, Stage 3 test product with or without 5-FU, ECOG 0 or 1): 3.19 months
- Median survival time from entry into study Stage 3 to death from any cause ([1]; Intention to Treat, Stage 3 test product with or without 5-FU, ECOG 2): 2.79 months
- Median survival time from entry into study Stage 3 to death from any cause ([1]; Intention to Treat, Stage 3 test product with or without 5-FU, Overall): 2.96 months
- Median survival time from study enrollment to death from any cause ([1]; Intention to Treat, patients participating in study Stage 3, ECOG 0 or 1): 7.13 months
- Median survival time from study enrollment to death from any cause ([1]; Intention to Treat, patients participating in study Stage 3, ECOG 2): 6.31 months
- Abdominal pain (not otherwise specified): (%) of Patients [3]: (26.2) %
- Abdominal pain (not otherwise specified): Number of Events [3]: 96
- Abdominal pain (not otherwise specified): Number of Patients [3]: 56
- Abdominal pain upper: (%) of Patients [3]: (11.7) %
- Abdominal pain upper: Number of Events [3]: 35
- Abdominal pain upper: Number of Patients [3]: 25
- Alanine aminotransferase increased: (%) of Patients [3]: (7.0) %
- Alanine aminotransferase increased: Number of Events [3]: 21
- Alanine aminotransferase increased: Number of Patients [3]: 15
- Anemia (not otherwise specified): (%) of Patients [3]: (43.9) %
- Anemia (not otherwise specified): Number of Events [3]: 206
- Anemia (not otherwise specified): Number of Patients [3]: 94
- Anorexia: (%) of Patients [3]: (23.8) %
- Anorexia: Number of Events [3]: 71
- Anorexia: Number of Patients [3]: 51
- Ascites: (%) of Patients [3]: (17.8) %
- Ascites: Number of Events [3]: 51
- Ascites: Number of Patients [3]: 38
- Aspartate aminotransferase increased: (%) of Patients [3]: (8.9) %
- Aspartate aminotransferase increased: Number of Events [3]: 27
- Aspartate aminotransferase increased: Number of Patients [3]: 19
- Back pain: (%) of Patients [3]: (9.8) %
- Back pain: Number of Events [3]: 30
- Back pain: Number of Patients [3]: 21
- Blood alkaline phosphatase increased (not otherwise specified): (%) of Patients [3]: (9.8) %
- Blood alkaline phosphatase increased (not otherwise specified): Number of Events [3]: 28
- Blood alkaline phosphatase increased (not otherwise specified): Number of Patients [3]: 21
- Constipation: (%) of Patients [3]: (18.7) %
- Constipation: Number of Events [3]: 57
- Constipation: Number of Patients [3]: 40
- Dehydration: (%) of Patients [3]: (8.9) %
- Dehydration: Number of Events [3]: 26
- Dehydration: Number of Patients [3]: 19
- Diarrhea (not otherwise specified): (%) of Patients [3]: (21.5) %
- Diarrhea (not otherwise specified): Number of Events [3]: 79
- Diarrhea (not otherwise specified): Number of Patients [3]: 46
- Disease progression (not otherwise specified): (%) of Patients [3]: (11.7) %
- Disease progression (not otherwise specified): Number of Events [3]: 25
- Disease progression (not otherwise specified): Number of Patients [3]: 25
- Dyspnea (not otherwise specified): (%) of Patients [3]: (15.4) %
- Dyspnea (not otherwise specified): Number of Events [3]: 46
- Dyspnea (not otherwise specified): Number of Patients [3]: 33
- Edema peripheral: (%) of Patients [3]: (24.3) %
- Edema peripheral: Number of Events [3]: 76
- Edema peripheral: Number of Patients [3]: 52
- Fatigue: (%) of Patients [3]: (36.0) %
- Fatigue: Number of Events [3]: 178
- Fatigue: Number of Patients [3]: 77
- Headache (not otherwise specified): (%) of Patients [3]: (6.5) %
- Headache (not otherwise specified): Number of Events [3]: 42
- Headache (not otherwise specified): Number of Patients [3]: 14
- Jaundice (not otherwise specified): (%) of Patients [3]: (11.7) %
- Jaundice (not otherwise specified): Number of Events [3]: 30
- Jaundice (not otherwise specified): Number of Patients [3]: 25
- Leukopenia (not otherwise specified): (%) of Patients [3]: (13.6) %
- Leukopenia (not otherwise specified): Number of Events [3]: 67
- Leukopenia (not otherwise specified): Number of Patients [3]: 29
- Nausea: (%) of Patients [3]: (42.1) %
- Nausea: Number of Events [3]: 269
- Nausea: Number of Patients [3]: 90
- Neutropenia: (%) of Patients [3]: (32.2) %
- Neutropenia: Number of Events [3]: 212
- Neutropenia: Number of Patients [3]: 69
- Pyrexia: (%) of Patients [3]: (30.4) %
- Pyrexia: Number of Events [3]: 184
- Pyrexia: Number of Patients [3]: 65
- Rash (not otherwise specified): (%) of Patients [3]: (9.3) %
- Rash (not otherwise specified): Number of Events [3]: 26
- Rash (not otherwise specified): Number of Patients [3]: 20
- Rigors: (%) of Patients [3]: (15.4) %
- Rigors: Number of Events [3]: 97
- Rigors: Number of Patients [3]: 33
- Thrombocytopenia: (%) of Patients [3]: (29.9) %
- Thrombocytopenia: Number of Events [3]: 196
- Thrombocytopenia: Number of Patients [3]: 64
- Vomiting (not otherwise specified): (%) of Patients [3]: (29.4) %
- Vomiting (not otherwise specified): Number of Events [3]: 141
- Vomiting (not otherwise specified): Number of Patients [3]: 63
- Weakness: (%) of Patients [3]: (23.8) %
- Weakness: Number of Events [3]: 82
- Weakness: Number of Patients [3]: 51
- Weight decreased: (%) of Patients [3]: (12.1) %
- Weight decreased: Number of Events [3]: 38
- Weight decreased: Number of Patients [3]: 26

Structure (SMILES): O=c1[nH]cc(F)c(=O)[nH]1 [5-FU, 5-fluorouracil]
- median Overall Survival [2]: 4.2 months

Source: patent US8236354B1, “Use of immunomodulators for the treatment of cancer” (ZOR Pharmaceuticals, LLC, priority 2012, dated 2012)
